Test results published in patent publication US7875601B2, “Cancer treatment with epothilones” (Novartis AG, priority 1998, dated 2011).

Tests used:
[1] = test system: human PC-3M prostate carcinoma cells; assay: Antitumor effect against orthotopically injected PC-3M cells; type: in vivo, male BALB/c nude mice; conditions: for Tumor Response (T/C %) Lymph Nodes / Tumor Response (T/C %) Prostate: day 42
Experimental: A human androgen-independent prostate cancer cell line is used to establish subcutaneous and orthotopic models in mice. The human metastatic prostate carcinoma PC-3M is obtained from Dr. I. J. Fidler (MD Anderson Cancer Center, Houston, Tex., USA) and is cultured in Ham's F12K media supplemented with 7% v/v FBS. The PC-3M cell line is the result of isolation from liver metastasis produced in nude mice subsequent to intrasplenic injection of PC-3 cells [ATCC CRL 1435; American Type Culture Collection (Rockville, Md., USA)], and they can grow in Eagle's MEM supplemented with 10% fetal bovine serum, sodium pyruvate, non-essential amino acids, L-glutamine, a two-fold vitamin solution (Gibco Laboratories, Long Island, N.Y.) and penicillin-streptomycin (Flow Laboratories, Rockville, Md.). The PC-3M cell line is hormone-insensitive (that is, it grows in the absence of androgens). The PC-3 cell line is androgen receptor negative, as is presumably the derived PC-3M cell line. […] The cells are near-triploid with a modal number of 62 chromosomes. No normal Y chromosomes can be detected by Q-band analysis.
Human prostate carcinoma PC-3M cells (1×10^6 cells per 20 μl phosphate buffered saline) are injected into the left […] of the prostate of each animal (n=6-9/group) according the method previously described (see Stephenson et al., J. Natl. Cancer Inst. 84, 951-7 (1992)). Treatment is started on day 14 after cell injection. At this time point a mean tumor weight of ˜20 mg is established. Epothilone B is administered either once or once weekly. Mice are sacrificed 42 days post tumor inoculation, and the prostates are carefully removed, dissected free of adhering tissue and weighed. […] Mesenteric lymph nodes are examined for the presence of metastases, dissected free of adhering tissue and weighed.
Tumor weight and body weights are monitored once or twice weekly. All treatments are administered intravenously (i.v.) and are initiated 14 days post cell injection. Treatment with epothilone B varies the dose and frequency of administration. Antitumor activity is expressed as T/C % (mean tumor weight of treated animals divided by the mean tumor weight of control animals multiplied by 100).

[2] = test system: human estrogen-dependent ZR-75-1 breast tumors; assay: Antitumor effect against s.c. transplanted ZR-75-1 breast tumors; type: in vivo, female BALB/c nude mice
Experimental: Female or male BALB/c nu/nu (nude) mice are kept under sterile conditions (10 to 12 mice per Type III cage) with free access to food and water. Mice weigh between 20 and 25 grams at the time of tumor implantation. Tumors are established by subcutaneous injection of cells (minimum 2×10^6 cells in 100 μl PBS or medium) in carrier mice (4-8 mice per cell line). The resulting tumors are serially passaged for a minimum of three consecutive transplantations prior to start of treatment. Tumor fragments (approx. 25 mg) are implanted s.c. into the left flank of animals with a 13-gauge trocar needle while the mice are exposed to Forene (Abbott, Switzerland) anesthesia.
Tumor growth and body weights are monitored once or twice weekly. All treatments are administered intravenously (i.v.) and are initiated when a mean tumor volume of approximately 100 to 250 mm^3 is attained, depending upon the tumor type. Tumor volumes are determined using the formula […] (see Cancer Chemother. Pharmacol. 24:148-154, [1989]). Treatments with epothilone B vary the dose and the frequency of administration. Comparator agents are administered according to previously determined optimal treatment regimens. In addition to presenting changes in tumor volumes over the course of treatment, antitumor activity is expressed as T/C % (mean increase of tumor volumes of treated animals divided by the mean increase of tumor volumes of control animals multiplied by 100). Tumor. regression (%) represents the smallest mean tumor volume compared to the mean tumor volume at the start of treatment, according to the formula Regression (%)=(1−Vend/Vstart)×100(Vend=final mean tumor volume, Vstart=mean tumor volume at the start of treatment. Any animals in which the tumor has reached a size exceeding approximately 1.5 to 2.5 cm^3 are sacrificed. Details can be found below.

PC-3M (Prostate) = assay: Antiproliferative assay, PC-3M; type: cell-based, human; conditions: 3 d exposure, mean ± SD, read-out: IC50 for growth inhibition
Experimental: A human androgen-independent prostate cancer cell line is used to establish subcutaneous and orthotopic models in mice. The human metastatic prostate carcinoma PC-3M is obtained from Dr. I. J. Fidler (MD Anderson Cancer Center, Houston, Tex., USA) and is cultured in Ham's F12K media supplemented with 7% v/v FBS. The PC-3M cell line is the result of isolation from liver metastasis produced in nude mice subsequent to intrasplenic injection of PC-3 cells [ATCC CRL 1435; American Type Culture Collection (Rockville, Md., USA)], and they can grow in Eagle's MEM supplemented with 10% fetal bovine serum, sodium pyruvate, non-essential amino acids, L-glutamine, a two-fold vitamin solution (Gibco Laboratories, Long Island, N.Y.) and penicillin-streptomycin (Flow Laboratories, Rockville, Md.). The PC-3M cell line is hormone-insensitive (that is, it grows in the absence of androgens). […] No normal Y chromosomes can be detected by Q-band analysis.
Antiproliferative assays are performed as previously described (Int. J. Cancer 43, 851-6 (1989)). […] After washing, the dye is eluted with 3% v/v HCl and the optical density measured at 665 nm with a SpectraMax 340 (Bucherer, Basel, Switzerland). IC50 values are determined by a computerized system (SoftPro, Bucherer, Basel, Switzerland) using the formula (OD test−OD start)/(OD control−OD start)×100. […]

[3] = 1 mg/kg, i.v. every 7 days, day 47
[4] = 2 mg/kg, i.v. every 7 days, day 47
[5] = 4 mg/kg, i.v. every 7 days, day 47
[6] = 4 mg/kg, i.v. every 14 days, day 47

SMILES: C/C(=C\c1csc(C)n1)[C@@H]1C[C@@H]2O[C@]2(C)CCC[C@H](C)[C@H](O)[C@@H](C)C(=O)C(C)(C)[C@@H](O)CC(=O)O1 [epothilone B]
- % Body Weight Change ([1]; 4 mg/kg, i.v. once per week): −1 ± 5%
- Survival (No. alive/total) ([1]; 4 mg/kg, i.v. once per week): 8/9
- Δ Body Weight ([1]; 4 mg/kg, i.v. once per week): -1.2 ± 2.3 g
- Tumor Response (T/C %) Lymph Nodes ([1]; 4 mg/kg, i.v. once per week): 4%
- Tumor Response (T/C %) Prostate ([1]; 4 mg/kg, i.v. once per week): 2%
- % Body Weight Change ([1]; 5 mg/kg, i.v. once per week): −25 ± 5%
- Survival (No. alive/total) ([1]; 5 mg/kg, i.v. once per week): 7/9
- Δ Body Weight ([1]; 5 mg/kg, i.v. once per week): -6.8 ± 1.5 g
- Tumor Response (T/C %) Lymph Nodes ([1]; 5 mg/kg, i.v. once per week): 4%
- Tumor Response (T/C %) Prostate ([1]; 5 mg/kg, i.v. once per week): 1%
- % Body Weight Change ([1]; 6 mg/kg, i.v. once): −6 ± 12%
- Survival (No. alive/total) ([1]; 6 mg/kg, i.v. once): 9/9
- Δ Body Weight ([1]; 6 mg/kg, i.v. once): -1.4 ± 4.1 g
- Tumor Response (T/C %) Lymph Nodes ([1]; 6 mg/kg, i.v. once): 4%
- Tumor Response (T/C %) Prostate ([1]; 6 mg/kg, i.v. once): 5%
- % Body Weight Change ([1]; 8 mg/kg, i.v. once): −13 ± 15%
- Survival (No. alive/total) ([1]; 8 mg/kg, i.v. once): 7/9
- Δ Body Weight ([1]; 8 mg/kg, i.v. once): -5.2 ± 4.3 g
- Tumor Response (T/C %) Lymph Nodes ([1]; 8 mg/kg, i.v. once): 4%
- Tumor Response (T/C %) Prostate ([1]; 8 mg/kg, i.v. once): 1%
- animals with detectable metastases ([1]; in each of the epothilone B treatment groups, all animals in vehicle controls): one
- % Body Weight Change [2, 3]: 2 ± 5%
- Regression [2, 3]: none
- Survival (No. alive/total) [2, 3]: 4/6
- T/C (%) [2, 3]: 86%
- Δ Body Weight [2, 3]: 0.3 ± 1.2 g
- Δ Tumor Volume (mm^3) [2, 3]: 393 ± 135 mm^3
- % Body Weight Change [2, 4]: −14 ± 6%
- Regression [2, 4]: none
- Survival (No. alive/total) [2, 4]: 5/6
- T/C (%) [2, 4]: 40%
- Δ Body Weight [2, 4]: -3.5 ± 1.6 g
- Δ Tumor Volume (mm^3) [2, 4]: 227 ± 76 mm^3
- T/C (%) ([2]; 4 mg/kg, i.v. every 7 days (days 19, 26 and 33), day 47): 1%
- % Body Weight Change [2, 5]: −5 ± 3%
- Survival (No. alive/total) [2, 5]: 3/6
- Δ Body Weight [2, 5]: -1.2 ± 0.6 g
- Δ Tumor Volume (mm^3) [2, 5]: 29 ± 16 mm^3
- Regression ([2]; 4 mg/kg, i.v. every 7 days, transient): −8%
- T/C (%) ([2]; 4 mg/kg, i.v. every 14 days (days 19 and 33), day 47): 46%
- % Body Weight Change [2, 6]: −7 ± 5%
- Regression [2, 6]: none
- Survival (No. alive/total) [2, 6]: 4/6
- Δ Body Weight [2, 6]: -1.6 ± 1.1 g
- Δ Tumor Volume (mm^3) [2, 6]: 208 ± 86 mm^3
- IC50 (PC-3M (Prostate)): 3.82 ± 0.47 nM
